Assays:
[1] = cynomolgus monkey, in vivo
Experimental: (§1) Six adult cynomolgus monkeys (three males and three females) were used for this study. Males weighed from 5.3 kg to 5.5 kg at the start of the live phase. Females weighed from 3.8 kg to 4.9 kg at the start of the live phase. Each animal was uniquely identified with a number tattooed on the inner thigh.
(§2) The animals were housed individually in stainless steel cages. Rooms were thermostatically set to maintain a temperature of 72° F. and maintain an actual temperature within 8° F. from that set point. The environmental control system is designed to maintain a relative humidity of 20% and a maximum of 80%. Light was on a 12 hour cycle, with lights on between 0600 and 1800. […] On test days, the animals were given primate chow only after the completion of the inhalation exposures. Water was available ad libitum except during exposure times.
(§3) Prior to beginning the live phase of the study, the monkeys were conditioned, over an approximately 3 month period, to be caught, handled, and placed in a restraint chair using the pole-and-collar method. Foods like peanuts, marshmallows, and a variety of dried and fresh fruits were used as training rewards. The time that the monkeys were left in the chair was increased gradually up to 8 hours. By the end of the training period, all the monkeys could be caught quickly, placed into the restraint chair easily, and would allow limb manipulation, including having blood drawn, while in the chair.
(§4) Each monkey was studied once per week for 5 weeks. Target concentrations of raloxifene activity were 0, 3, 10, 0, and 30 mg/m^3 for Weeks 1 through 5 respectively. The activity was determined by correcting the amount of raloxifene collected by the potency of the lot used. Each exposure was for 8 hours, divided into 4 hour segments with 15 minutes in between. During the 15 minute period between the 4 hour exposures, the monkeys were offered juice to drink and apple pieces to eat. The conditioning period described above had used this method to keep the animals from becoming agitated due to hunger or thirst. A 15 minute break in the exposures was not expected to affect the blood levels of raloxifene.
(§5) The monkeys were placed into the restraint prior to each exposure. Two sheets of latex (0.030 in. thick) were placed around the animal's necks to form a seal. A 7-L head dome was placed over the animal's heads as described in J. Appl. […] Airflow of 15 L/min was maintained through the head dome via a calibrated transvector on the exhaust port. The raloxifene was aerosolized using a Wright Dust Feed II. […] The aerosol then entered the head-dome for the monkey to breath.
(§6) Each day, before the monkeys were exposed, the exposure system was set up and a gravimetric sample was taken to determine the raloxifene concentration. The monkey was then placed in the chair and the aerosol was generated using the same generator settings. After the exposure to the monkey, it was removed from the chair, the system re-assembled, and another gravimetric sample taken. The concentrations derived from the 2 gravimetric samples were averaged to obtain the raloxifene concentration for that exposure. Gravimetric concentrations were determined by collecting the aerosol directly from the head-dome onto a 25 mm Gelman type A/E glass fiber filter.

[2] = cynomolgus monkey, in vivo; remark: listed apart in the source
[3] = Pharmacokinetics of inhaled (pulmonary/nasal) aerosolized raloxifene in cynomolgus monkeys (Working Example 1)
Experimental: as §1, §2, §3, §4, §5, §6

O=C(c1ccc(OCCN2CCCCC2)cc1)c1c(-c2ccc(O)cc2)sc2cc(O)ccc12 [raloxifene]
blood levels of raloxifene (level and duration) [1]: relatively higher blood levels of raloxifene which lasted for several hours | initial levels of unmetabolized raloxifene absorbed into the blood [1]: higher, relative to oral delivery | breathing frequency [2]: no significant changes | tidal volume [2]: no significant changes | Cmax (Mean Ralox.) ([3]; 8 h inhalation, exposure conc. 3.3 mg Ralox./m^3 of air, plasma): 7 ng/mL | Cmax (Mean Ralox.) ([3]; 8 h inhalation, exposure conc. 9.7 mg Ralox./m^3 of air, plasma): 17 ng/mL | Cmax (Mean Ralox.) ([3]; 8 h inhalation, exposure conc. 26.9 mg Ralox./m^3 of air, plasma): 47 ng/mL | AUC ratio of raloxifene/total raloxifene ([3]; inhalation, 10 mg/m^3 dose group): 0.56 | AUC ratio of raloxifene/total raloxifene ([3]; inhalation, 30 mg/m^3 dose group): 0.82 | sex differences in raloxifene, total raloxifene, Cmax, or AUC values ([3]; inhalation, males and females): No appreciable sex differences | blood levels by pulmonary/nasal delivery relative to oral administration ([3]; oral administration at an equivalent dose as comparison): considerably higher than those obtained following oral administration | bioavailability ([3]; pulmonary/nasal delivery): unexpected high level of bioavailability | Cmax (Mean Tot. Ralox.) ([3]; total raloxifene, 8 h inhalation, exposure conc. 26.9 mg Ralox./m^3 of air, plasma): 84 ng/mL

Reference: patent US6080762A, “Pulmonary and nasal delivery of raloxifene” (priority 1999, dated 2000)
